From the supplement of paper PMC10627819

How the values were obtained:
S. aureus Newman [1] = test: Bliss interaction score (quartile over a dose matrix) (fitness difference); higher = more antagonism (negative = synergy)
Procedure, shortened: (§1)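 Fitness was OD595 at entry into stationary phase divided by the plate's robust no-drug mean and capped at 1; single-drug fitness was inferred from combination data. The Bliss score is observed minus expected (product) fitness, summarised by quartiles over technical, biological and donor/recipient replicates.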

S. pneumoniae D39V = test: as above
Procedure, shortened: as §1

S. aureus DSM 20231 [2] = test: as above
Procedure, shortened: as §1

B. subtilis 168 [3] = test: as above
Procedure, shortened: as §1

S. aureus DSM 20231 [4] = test: fitness (endpoint OD595 vs no drug) (fraction); higher = more growth
Procedure, shortened: (§2)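 With the first reading as background, OD595 was measured every 30 min for 14 h in 384-well plates kept at 37 °C and inoculated at OD595 0.01. TSB, LB Lennox or CY was the medium. Fitness is the optical density at the transition into stationary phase divided by the robust mean of no-drug control wells, with a cap of 1.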

B. subtilis 168 [5] = test: as above
Procedure, shortened: as §2

S. aureus Newman [6] = test: as above
Procedure, shortened: as §2
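Throughout, for Bliss interaction score (quartile over a dose matrix): first quartile when negative (synergy) and third quartile when positive (antagonism).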

CC[C@H]1OC(=O)[C@H](C)[C@@H](O[C@H]2C[C@@](C)(OC)[C@@H](O)[C@H](C)O2)[C@H](C)[C@@H](O[C@@H]2O[C@H](C)C[C@H](N(C)C)[C@H]2O)[C@](C)(O)C[C@@H](C)CN(C)[C@H](C)[C@@H](O)[C@]1(C)O [Azithromycin] + COc1cc(Cc2cnc(N)nc2N)cc(OC)c1OC [Trimethoprim]
Details	Bliss interaction score
B. subtilis 168 [3]	-0.194
S. aureus DSM 20231 [2]	0.171
S. aureus Newman [1]	0.175
S. pneumoniae D39V	-0.0811

fitness
Details	partner 0.125 µg/mL	partner 0.25 µg/mL	partner 0.5 µg/mL	partner 1 µg/mL
B. subtilis 168 [5], first compound 0.25 µg/mL	0.669	0.541	0.452	–
B. subtilis 168 [5], first compound 0.5 µg/mL	0.471	–	–	–
B. subtilis 168 [5], first compound 2 µg/mL	–	0.0144	0.0327	–
S. aureus DSM 20231 [4], first compound 0.125 µg/mL	0.789	0.64	0.538	0.0427
S. aureus DSM 20231 [4], first compound 0.25 µg/mL	0.782	0.658	0.562	0.03
S. aureus DSM 20231 [4], first compound 0.5 µg/mL	0.38	–	0.292	0.0131

fitness, B. subtilis 168 [5], one replicate
Details	partner 0.1 µg/mL	partner 0.125 µg/mL	partner 0.2 µg/mL	partner 0.4 µg/mL	partner 1 µg/mL	partner 2 µg/mL
first compound 0.25 µg/mL	–	–	–	–	0.106	0.0698
first compound 0.5 µg/mL	0.365	–	0.257	0.111	0.051	0.0526
first compound 1 µg/mL	0.144	–	0.0549	0.0194	0.0321	0.0311
first compound 2 µg/mL	0.0143	0.0446	0.0451	0.0182	–	–

CC[C@H]1OC(=O)[C@H](C)[C@@H](O[C@H]2C[C@@](C)(OC)[C@@H](O)[C@H](C)O2)[C@H](C)[C@@H](O[C@@H]2O[C@H](C)C[C@H](N(C)C)[C@H]2O)[C@](C)(O)C[C@@H](C)CN(C)[C@H](C)[C@@H](O)[C@]1(C)O [Azithromycin] + Cn1nnc(-c2ccc(-c3ccc(N4C[C@H](CO)OC4=O)cc3F)cn2)n1 [Tedizolid]
Details	Bliss interaction score
B. subtilis 168 [3]	-0.0935
S. aureus DSM 20231 [2]	-0.0615
S. aureus Newman [1]	-0.14
S. pneumoniae D39V	0.0648

fitness
Details	first compound 0.125 µg/mL	first compound 0.25 µg/mL	first compound 0.5 µg/mL
S. aureus DSM 20231 [4], partner 0.0625 µg/mL	0.887	0.765	–
S. aureus DSM 20231 [4], partner 0.125 µg/mL	0.7	0.667	0.294
S. aureus DSM 20231 [4], partner 0.25 µg/mL	0.165	0.231	0.0821
S. aureus Newman [6], partner 0.0625 µg/mL	0.867	0.818	–
S. aureus Newman [6], partner 0.125 µg/mL	0.744	0.644	–

CC[C@H]1OC(=O)[C@H](C)[C@@H](O[C@H]2C[C@@](C)(OC)[C@@H](O)[C@H](C)O2)[C@H](C)[C@@H](O[C@@H]2O[C@H](C)C[C@H](N(C)C)[C@H]2O)[C@](C)(O)C[C@@H](C)CN(C)[C@H](C)[C@@H](O)[C@]1(C)O [Azithromycin] + O=C(N[C@H](CO)[C@H](O)c1ccc([N+](=O)[O-])cc1)C(Cl)Cl [Chloramphenicol]
Details	Bliss interaction score
B. subtilis 168 [3]	-0.116
S. aureus DSM 20231 [2]	-0.153
S. aureus Newman [1]	-0.101
S. pneumoniae D39V	0.0336

fitness
Details	first compound 0.125 µg/mL	first compound 0.25 µg/mL	first compound 0.5 µg/mL
S. aureus DSM 20231 [4], partner 0.75 µg/mL	0.703	0.657	0.29
S. aureus DSM 20231 [4], partner 1.5 µg/mL	0.544	0.366	0.139
S. aureus DSM 20231 [4], partner 3 µg/mL	0.155	0.113	0.0604
S. aureus Newman [6], partner 0.75 µg/mL	0.76	0.692	0.461
S. aureus Newman [6], partner 1.5 µg/mL	0.515	0.527	0.253
S. aureus Newman [6], partner 3 µg/mL	–	0.2	0.109

Cc1onc(-c2ccccc2)c1C(=O)N[C@@H]1C(=O)N2[C@@H]1SC(C)(C)[C@@H]2C(=O)O [Oxacillin] + CCCCCCCCCC(=O)N[C@@H]1[C@H]([C@@H]([C@H](O[C@H]1OC2=C3C=C4C=C2OC5=C(C=C(C=C5)[C@H]([C@H]6C(=O)N[C@@H](C7=C(C(=CC(=C7)O)OC8[C@H]([C@H]([C@@H]([C@H](O8)CO)O)O)O)C9=C(C=CC(=C9)[C@H](C(=O)N6)NC(=O)[C@@H]4NC(=O)[C@@H]1C2=CC(=CC(=C2)OC2=C(C=CC(=C2)[C@H](C(=O)N[C@H](CC2=CC(=C(O3)C=C2)Cl)C(=O)N1)N)O)O)O)C(=O)O)O[C@H]1[C@@H]([C@H]([C@@H]([C@H](O1)CO)O)O)NC(=O)C)Cl)CO)O)O [Teicoplanin]
main component drawn
Details	Bliss interaction score
B. subtilis 168 [3]	-0.0735
S. aureus DSM 20231 [2]	0.062
S. aureus Newman [1]	-0.0741
S. pneumoniae D39V	-0.0582

fitness, main component drawn
Details	first compound 0.0156 µg/mL	first compound 0.0312 µg/mL	first compound 0.0625 µg/mL
S. aureus DSM 20231 [4], partner 0.1562 µg/mL	0.833	0.743	0.492
S. aureus DSM 20231 [4], partner 0.3125 µg/mL	0.877	0.811	0.485
S. aureus DSM 20231 [4], partner 0.625 µg/mL	0.813	0.693	0.541
S. aureus Newman [6], partner 0.1562 µg/mL	0.746	0.702	0.595
S. aureus Newman [6], partner 0.3125 µg/mL	0.732	0.708	0.596
S. aureus Newman [6], partner 0.625 µg/mL	0.721	0.65	–

fitness, S. aureus Newman [6], one replicate, main component drawn
Details	first compound 0.0156 µg/mL	first compound 0.0312 µg/mL	first compound 0.0625 µg/mL
partner 0.62 µg/mL	0.603	0.638	0.534
partner 1.24 µg/mL	0.668	0.596	0.351
partner 2.48 µg/mL	0.429	0.16	0.143
